Measured values reported in publication PMC11643690, “Chelating Properties of N6O-Donors Toward Cu(II) Ions: Speciation in Aqueous Environments and Catalytic Activity of the Dinuclear Complexes” (Molecules, 2024).
Entries after “also recorded” stand apart in the source; their conditions may differ.

Key:
[1] = UV–Vis titration of HL-CH3 with Fe(ClO4)2, binding constant; conditions: Fe(II); 0.1 mM ligand, 5% v/v MeOH/BBS 50 mM, pH 7.4
Procedure: (§1) To evaluate the selectivity of these ligands towards copper, the same titrations were performed with different metal salts: Fe(ClO4)2, Mn(ClO4)2, and Zn(ClO4)2, monitoring the methyl-substituted ligand (Figures S39–S41). These metal ions were chosen because they are also divalent and common in biological matrixes.
(§2) For the determination of the binding constant between metals and ligands, a solution of the latter was titrated with 0.2 eq of metal for each addition. The titrating solutions were 10 mM and 100 μM for Cu(ClO4)2 versus 0.1 mM and 1 μM for the ligands in 5% v/v MeOH/BBS (50 mM, pH 7.4), respectively. […] The absorbance variation was monitored from 200 nm to 800 nm at 25 °C. […]
(§3) UV-vis spectra of ligands and complexes were recorded in a quartz cuvette, with 1 cm of optical path. […]
(§4) The titrating solutions were 10 mM and 100 μM for Cu(ClO4)2 versus 0.1 mM and 1 μM for the ligands in 5% v/v MeOH/BBS (50 mM, pH 7.4), respectively. […] The absorbance variation was monitored from 200 nm to 800 nm with a Varian Cary 50 instrument, thermostated at 25 °C.
(§5) The binding constants were then determined by nonlinear regression analysis of the plot “ΔAbs/b vs Cu(II) concentration” (Equation 7 ), according to K. Connors, The Measurement of Molecular Complex Stability, Madison, Wisconsin, Wiley, 1987[5]. […]
(§6) ΔA: absorbance at a certain wavelength. […]

[2] = UV–Vis titration of ligands with Cu(ClO4)2, binding constant by non-linear regression; conditions: difference of stability constants
Procedure: To determine the overall equilibrium constant β1,2 (Kbind), a solution of the ligand was titrated with aliquots of 0.2 equivalents of Cu(II). Monitoring the formation of the complex via UV–Vis spectroscopy, the absorbance around 260 nm, 300 nm, 450 nm, and 700 nm increased during the titration (Figure 3a) in all cases. The latter two bands are visible only at high concentrations (>0.1 mM). These changes are caused by the formation of the complex and the disappearance of the free ligand.
In Figure 3b, the linear increase in the absorbance change (ΔAbs) at 240 nm, upon an increase in Cu(II) amount, is evident, leading to a sharp plateau around 2 equivalents. […] The binding constants were determined by non-linear regression analysis of Equation (2), (2) ∆A/b=(K1∆A1Cu+ β1,2∆A2Cu^2)/1+K1Cu+ β1,2Cu^2 which traces the correlation “ΔAbs/b vs. Cu(II) concentration,” according to K. Connors. In this equation, ΔA is the differences in absorbance at a certain wavelength, b is the optical path (1 cm), K1 is the constant for the formation of the complex 1:1, and β1,2 is the global formation constant (Kbind) for the complex 1:2. ΔA1 and ΔA2 are the differences in absorbance due to the formation of the 1:1 complex and the 1:2 complex, respectively. […]
as §3

[3] = UV–Vis titration of HL-CH3 with Zn(ClO4)2, binding constant; conditions: Zn(II); 0.1 mM ligand, 5% v/v MeOH/BBS 50 mM, pH 7.4
Procedure: as §1, §2, §3, §4, §5, §6

[4] = ESI-MS(+) competition with equimolar Cu, Fe, Mn, Zn perchlorates; type: binding; conditions: half an equivalent of ligand
Procedure: Equimolar solutions of Cu(ClO4)2, Fe(ClO4)2, Mn(ClO4)2, and Zn(ClO4)2 were prepared, and half an equivalent of HL-CH3 was added. The composition of the solution was then analyzed with ESI-MS to determine which species were formed. […] The most intense signal is the cluster at m/z = 855, referring to the species [Cu2(L-CH3)(ClO4)2]^+. Other signals are at m/z = 801 for [Cu2(L-CH3)(COO)(ClO4)]^+ and m/z = 351 for [Cu2(L-CH3)(ClO4)]^2+.

[5] = UV–Vis titration of HL-CH3 with Mn(ClO4)2, binding constant; conditions: Mn(II); 0.1 mM ligand, 5% v/v MeOH/BBS 50 mM, pH 7.4
Procedure: as §1, §2, §3, §4, §5, §6

SMILES: Cc1cc(CN(Cc2ccccn2)Cc2ccccn2)c(O)c(CN(Cc2ccccn2)Cc2ccccn2)c1 [HL-CH3, 2,6-bis[(bis(2-pyridylmethyl)amino)methyl]-4-methylphenol]
- Kbind [1]: 1.09 × 10^8 M^−2
- log(Kbind) [1]: 8.03
- binding preference for copper ions over Mn2+, Fe2+, Zn2+ [2]: almost three orders of magnitude; also recorded: approximately three orders of magnitude higher
- Kbind [3]: 2.49 × 10^8 M^−2
- log(Kbind) [3]: 8.39
- species formed in ESI-MS(+) spectrum [4]: only ascribable to the copper complex
- Kbind [5]: 6.12 × 10^7 M^−2
- log(Kbind) [5]: 7.78
